In ChEMBL document CHEMBL1138595, “(+/-)-Nantenine analogs as antagonists at human 5-HT(2A) receptors: C1 and flexible congeners” (Bioorg Med Chem Lett, 2009) one finds IC50 data, which are given here for 1 compound.

The experiment addresses 5-hydroxytryptamine receptor 2A (Homo sapiens, UniProt P28223). Description: Antagonist activity at human 5HT2A receptor expressed in EC80 serotonin-stimulated CHOK1 cells by calcium mobilization assay. Type of experiment: functional, cell-based, CHO-K1.

5-hydroxytryptamine receptor 2A, sequence (P28223 whole entry): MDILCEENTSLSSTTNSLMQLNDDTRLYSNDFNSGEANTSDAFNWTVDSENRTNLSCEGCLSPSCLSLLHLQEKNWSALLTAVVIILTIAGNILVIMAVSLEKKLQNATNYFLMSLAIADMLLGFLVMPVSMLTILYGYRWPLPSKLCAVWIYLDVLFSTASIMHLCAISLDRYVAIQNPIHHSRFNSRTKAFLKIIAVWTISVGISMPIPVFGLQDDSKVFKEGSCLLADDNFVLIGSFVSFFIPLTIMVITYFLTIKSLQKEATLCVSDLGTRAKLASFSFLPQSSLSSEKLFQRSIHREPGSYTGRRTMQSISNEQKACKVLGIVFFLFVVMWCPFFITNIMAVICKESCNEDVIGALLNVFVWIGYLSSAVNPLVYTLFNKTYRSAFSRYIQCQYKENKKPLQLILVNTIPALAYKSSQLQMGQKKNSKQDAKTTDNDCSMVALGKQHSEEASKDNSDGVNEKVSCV

Take `COc1cc2c3c(c1OCc1ccccc1)-c1cc4c(cc1CC3N(C)CC2)OCO4` (stereo unspecified): the IC50 came out at 4.6 µM.
